According to US5773569A (Affymax Technologies N.V., priority 1995, dated 1998):
pEC50: −log10 of the molar value. Residues, ends and D or L forms follow the SMILES beside them.

Columns and labels:
[1] = target: T1, murine receptor (FDC-P1/ER cells) (Mus musculus, UniProt P14753); assay: cell-based; details: IA = inactive
T1 sequence (P14753 25-507): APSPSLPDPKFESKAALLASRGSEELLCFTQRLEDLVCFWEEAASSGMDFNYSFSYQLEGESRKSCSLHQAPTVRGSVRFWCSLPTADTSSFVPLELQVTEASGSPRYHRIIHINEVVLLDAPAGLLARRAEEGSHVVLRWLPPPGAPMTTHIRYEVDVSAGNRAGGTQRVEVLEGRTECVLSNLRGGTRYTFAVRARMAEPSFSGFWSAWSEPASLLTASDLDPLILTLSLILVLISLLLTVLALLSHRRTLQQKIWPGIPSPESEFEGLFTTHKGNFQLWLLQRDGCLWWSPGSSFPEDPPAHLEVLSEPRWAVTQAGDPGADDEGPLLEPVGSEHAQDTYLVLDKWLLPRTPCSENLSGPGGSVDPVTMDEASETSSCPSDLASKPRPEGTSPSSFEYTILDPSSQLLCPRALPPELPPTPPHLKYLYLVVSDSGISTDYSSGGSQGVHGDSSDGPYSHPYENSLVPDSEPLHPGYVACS
Experimental: Sample Preparation: Peptides were resuspended in DMSO as a 1×10^-2 M stock solution and serially diluted in 10-fold increments to generate the following 100×solutions:
Two μl of each stock dilution was added to a cell well as described below in a total volume of 200 μl to generate final concentrations as follows:
(§1) Cells are harvested and resuspended in fresh medium without growth factor (erytiropoietin) for 24 hr. Cells are counted and resuspended at a concentration of 800,000 cells/ml. Approximately forty thousand cells (50μ) are added to each well of a 96 well microtiter plate. Peptide is added to each well in triplicate. A standard dose response determination is run with each series of peptides. After a forty-two hr incubation (≈2 doubling), each well is pulsed with 1 μCi/well Thymidine. Cells are incubated an additional six hr at which time cells are harvested and counted to assess thymidine incorporation as an indicator of cell proliferation.

[2] = target: T2, truncated human erythropoietin receptor cell line (Homo sapiens, UniProt P19235); assay: cell-based
T2 sequence (P19235 25-468 limits assumed): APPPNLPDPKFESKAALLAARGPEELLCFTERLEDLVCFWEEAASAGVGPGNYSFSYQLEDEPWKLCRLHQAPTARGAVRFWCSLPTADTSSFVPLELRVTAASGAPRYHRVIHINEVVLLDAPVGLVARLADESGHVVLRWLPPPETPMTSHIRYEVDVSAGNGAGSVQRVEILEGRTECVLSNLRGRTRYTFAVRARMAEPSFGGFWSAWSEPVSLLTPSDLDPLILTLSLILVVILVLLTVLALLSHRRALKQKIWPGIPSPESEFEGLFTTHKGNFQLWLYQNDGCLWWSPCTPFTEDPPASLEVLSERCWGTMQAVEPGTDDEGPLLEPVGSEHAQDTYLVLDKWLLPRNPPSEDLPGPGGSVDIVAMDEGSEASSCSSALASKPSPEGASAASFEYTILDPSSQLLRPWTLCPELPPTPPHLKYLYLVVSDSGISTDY
Experimental: as §1

[3] = EPO-ED50 (μM)* murine receptor, Tables 20-21
[4] = EPO-ED50 (μM), Tables 17-19, amount for half maximal level of EPO dependent proliferation

Compound | EC50 [1, 3] | pEC50 [2] | EC50 [1, 4]
CC[C@H](C)[C@H](NC(=O)[C@H](Cc1ccc(O)cc1)NC(=O)[C@H](CCC(N)=O)NC(=O)[C@H](C)NC(=O)[C@@H](NC(=O)[C@@H](N)[C@@H](C)O)[C@@H](C)CC)C(=O)N[C@H]1CSSC[C@@H](C(=O)N[C@@H](CCCNC(=N)N)C(=O)N2CCC[C@H]2C(=O)N[C@@H](CO)C(=O)N2CCC[C@H]2C(=O)N[C@@H](CCCCN)C(=O)N[C@@H](C)C(N)=O)NC(=O)[C@H](CCC(=O)O)NC(=O)[C@H](Cc2c[nH]c3ccccc23)NC(=O)[C@H]([C@@H](C)O)NC(=O)[C@H](CCC(=O)O)NC(=O)[C@@H]2CCCN2C(=O)CNC(=O)[C@H](CCSC)NC(=O)[C@H](Cc2ccc(O)cc2)NC1=O [AF11654] (HELM PEPTIDE1{T.I.A.Q.Y.I.C.Y.M.G.P.E.T.W.E.C.R.P.S.P.K.A.[am]}$PEPTIDE1,PEPTIDE1,7:R3-16:R3$$$V2.0) | 0.2 µM | 7.70 | –
CSCC[C@@H]1NC(=O)[C@H](Cc2c[nH]cn2)NC(=O)[C@@H](NC(=O)[C@H](C)NC(=O)[C@H](Cc2ccc(O)cc2)NC(=O)[C@H](CC(C)C)NC(=O)CNC(=O)CN)CSSC[C@@H](C(=O)N[C@@H](CCC(N)=O)C(=O)N2CCC[C@H]2C(=O)N[C@@H](CC(C)C)C(=O)N[C@@H](CCCNC(=N)N)C(=O)NCC(N)=O)NC(=O)[C@H](C(C)C)NC(=O)[C@H](Cc2c[nH]c3ccccc23)NC(=O)[C@H]([C@@H](C)O)NC(=O)[C@H](CCSC)NC(=O)[C@@H]2CCCN2C(=O)CNC1=O [RWJ 61718] | 0.15 µM | 7.10 | 0.1 µM
CC(C)[C@@H]1NC(=O)[C@H](Cc2c[nH]c3ccccc23)NC(=O)[C@H]([C@@H](C)O)NC(=O)[C@H](C)NC(=O)[C@@H]2CCCN2C(=O)CNC(=O)[C@H](Cc2ccccc2)NC(=O)[C@H](Cc2c[nH]cn2)NC(=O)[C@@H](NC(=O)[C@H](CO)NC(=O)[C@H](Cc2ccc(O)cc2)NC(=O)[C@@H](NC(=O)CNC(=O)CN)[C@@H](C)O)CSSC[C@@H](C(=O)N[C@@H](CCCCN)C(=O)N2CCC[C@H]2C(=O)N[C@@H](CCC(N)=O)C(=O)NCC(=O)NCC(N)=O)NC1=O [RWJ 61314] (HELM PEPTIDE1{G.G.T.Y.S.C.H.F.G.P.A.T.W.V.C.K.P.Q.G.G.[am]}$PEPTIDE1,PEPTIDE1,6:R3-15:R3$$$V2.0) | – | – | 0.2 µM
CC(C)C[C@@H]1NC(=O)[C@@H]2CCCN2C(=O)CNC(=O)[C@H](Cc2ccccc2)NC(=O)[C@H](Cc2c[nH]cn2)NC(=O)[C@@H](NC(=O)[C@H](CO)NC(=O)[C@@H](N)Cc2ccc(O)cc2)CSSC[C@@H](C(=O)N[C@@H](CCCCN)C(=O)N2CCC[C@H]2C(N)=O)NC(=O)[C@H](C(C)C)NC(=O)[C@H](Cc2c[nH]c3ccccc23)NC(=O)[C@H]([C@@H](C)O)NC1=O [RWJ 61232] (HELM PEPTIDE1{Y.S.C.H.F.G.P.L.T.W.V.C.K.P.[am]}$PEPTIDE1,PEPTIDE1,3:R3-12:R3$$$V2.0) | – | – | 20 µM
CSCC[C@@H]1NC(=O)[C@H](CCCNC(=N)N)NC(=O)[C@@H](NC(=O)[C@H](CC(C)C)NC(=O)[C@H](Cc2ccc(O)cc2)NC(=O)[C@H](CCC(=O)O)NC(=O)CNC(=O)CN)CSSC[C@@H](C(=O)N[C@H](C(=O)N2CCC[C@H]2C(=O)N[C@H](C(=O)NCC(=O)NCC(N)=O)C(C)C)[C@@H](C)O)NC(=O)[C@H](C(C)C)NC(=O)[C@H](Cc2c[nH]c3ccccc23)NC(=O)[C@H]([C@@H](C)O)NC(=O)[C@H](CCSC)NC(=O)[C@@H]2CCCN2C(=O)CNC1=O [RWJ 61719] (HELM PEPTIDE1{G.G.E.Y.L.C.R.M.G.P.M.T.W.V.C.T.P.V.G.G.[am]}$PEPTIDE1,PEPTIDE1,6:R3-15:R3$$$V2.0) | – | – | 9 µM
CC(C)C[C@@H]1NC(=O)[C@@H]2CCCN2C(=O)CNC(=O)[C@H](Cc2ccccc2)NC(=O)[C@H](Cc2c[nH]cn2)NC(=O)[C@@H](NC(=O)[C@H](CO)NC(=O)[C@H](Cc2ccc(O)cc2)NC(=O)[C@@H](N)[C@@H](C)O)CSSC[C@@H](C(=O)N[C@@H](CCCCN)C(=O)N2CCC[C@H]2C(=O)N[C@@H](CCC(N)=O)C(N)=O)NC(=O)[C@H](C(C)C)NC(=O)[C@H](Cc2c[nH]c3ccccc23)NC(=O)[C@H]([C@@H](C)O)NC1=O [RWJ 61230] (HELM PEPTIDE1{T.Y.S.C.H.F.G.P.L.T.W.V.C.K.P.Q.[am]}$PEPTIDE1,PEPTIDE1,4:R3-13:R3$$$V2.0) | – | – | 2 µM
CC(C)C[C@@H]1NC(=O)[C@@H]2CCCN2C(=O)CNC(=O)[C@H](Cc2ccccc2)NC(=O)[C@H](Cc2c[nH]cn2)NC(=O)[C@@H](NC(=O)[C@H](CO)NC(=O)[C@H](Cc2ccc(O)cc2)NC(=O)[C@@H](NC(=O)CNC(=O)CN)[C@@H](C)O)CSSC[C@@H](C(=O)N[C@@H](CCCCN)C(=O)N2CCC[C@H]2C(=O)N[C@@H](CCC(N)=O)C(=O)NCC(=O)NCC(N)=O)NC(=O)[C@H](C(C)C)NC(=O)[C@H](Cc2ccccc2)NC(=O)[C@H]([C@@H](C)O)NC1=O [RWJ 62145] (HELM PEPTIDE1{G.G.T.Y.S.C.H.F.G.P.L.T.F.V.C.K.P.Q.G.G.[am]}$PEPTIDE1,PEPTIDE1,6:R3-15:R3$$$V2.0) | – | 6.30 | 0.25 µM
CC(C)C[C@@H]1NC(=O)[C@H](C)NC(=O)CNC(=O)[C@H](Cc2ccccc2)NC(=O)[C@H](Cc2c[nH]cn2)NC(=O)[C@@H](NC(=O)[C@H](CO)NC(=O)[C@H](Cc2ccc(O)cc2)NC(=O)[C@@H](NC(=O)CNC(=O)CN)[C@@H](C)O)CSSC[C@@H](C(=O)N[C@@H](CCCCN)C(=O)N2CCC[C@H]2C(=O)N[C@@H](CCC(N)=O)C(=O)NCC(=O)NCC(N)=O)NC(=O)[C@H](C(C)C)NC(=O)[C@H](Cc2c[nH]c3ccccc23)NC(=O)[C@H]([C@@H](C)O)NC1=O [RWJ 61277] (HELM PEPTIDE1{G.G.T.Y.S.C.H.F.G.A.L.T.W.V.C.K.P.Q.G.G.[am]}$PEPTIDE1,PEPTIDE1,6:R3-15:R3$$$V2.0) | – | – | 0.1 µM
CC(C)C[C@@H]1NC(=O)[C@@H]2CCCN2C(=O)CNC(=O)[C@H](Cc2ccccc2)NC(=O)[C@H](Cc2c[nH]cn2)NC(=O)[C@@H](NC(=O)[C@H](CO)NC(=O)[C@H](Cc2ccc(O)cc2)NC(=O)[C@H](CCCCN)NC(=O)[C@H](CCCNC(=N)N)NC(=O)CNC(=O)[C@@H](N)CC(C)C)CSSC[C@@H](C(=O)N[C@@H](CCC(N)=O)C(=O)N2CCC[C@H]2C(=O)N[C@@H](C)C(=O)N[C@@H](CCCCN)C(=O)N[C@@H](CCCCN)C(=O)N[C@@H](CC(=O)O)C(N)=O)NC(=O)[C@H](C(C)C)NC(=O)[C@H](Cc2c[nH]c3ccccc23)NC(=O)[C@H]([C@@H](C)O)NC1=O [RWJ 61757] (HELM PEPTIDE1{L.G.R.K.Y.S.C.H.F.G.P.L.T.W.V.C.Q.P.A.K.K.D.[am]}$PEPTIDE1,PEPTIDE1,7:R3-16:R3$$$V2.0) | 0.11 µM | 6.82 | –
CC(C)C[C@@H]1NC(=O)[C@@H]2CCCN2C(=O)CNC(=O)[C@H](Cc2ccccc2)NC(=O)[C@H](Cc2c[nH]cn2)NC(=O)[C@@H](NC(=O)[C@@H](N)Cc2ccc(O)cc2)CSSC[C@@H](C(N)=O)NC(=O)[C@H](C(C)C)NC(=O)[C@H](Cc2c[nH]c3ccccc23)NC(=O)[C@H]([C@@H](C)O)NC1=O [RWJ 61513] (HELM PEPTIDE1{Y.C.H.F.G.P.L.T.W.V.C.[am]}$PEPTIDE1,PEPTIDE1,2:R3-11:R3$$$V2.0) | – | – | 2 µM
CC(C)C[C@@H]1NC(=O)[C@@H]2CCCN2C(=O)CNC(=O)[C@H](Cc2ccccc2)NC(=O)[C@H](Cc2c[nH]cn2)NC(=O)[C@@H](NC(=O)[C@H](CO)NC(=O)[C@@H](N)Cc2ccc(O)cc2)CSSC[C@@H](C(=O)N[C@@H](CCCCN)C(N)=O)NC(=O)[C@H](C(C)C)NC(=O)[C@H](Cc2c[nH]c3ccccc23)NC(=O)[C@H]([C@@H](C)O)NC1=O [RWJ 61279] (HELM PEPTIDE1{Y.S.C.H.F.G.P.L.T.W.V.C.K.[am]}$PEPTIDE1,PEPTIDE1,3:R3-12:R3$$$V2.0) | – | – | 3 µM
CC(C)C[C@@H]1NC(=O)[C@@H]2CCCN2C(=O)CNC(=O)[C@H](Cc2ccccc2)NC(=O)[C@H](Cc2c[nH]cn2)NC(=O)[C@@H](NC(=O)[C@H](CO)NC(=O)[C@H](Cc2ccc(O)cc2)NC(=O)[C@@H](N)[C@@H](C)O)CSSC[C@@H](C(=O)N[C@@H](CCCCN)C(=O)N2CCC[C@H]2C(=O)N[C@@H](CCC(N)=O)C(=O)NCC(=O)NCC(N)=O)NC(=O)[C@H](C(C)C)NC(=O)[C@H](Cc2c[nH]c3ccccc23)NC(=O)[C@H]([C@@H](C)O)NC1=O [RWJ 61597] (HELM PEPTIDE1{T.Y.S.C.H.F.G.P.L.T.W.V.C.K.P.Q.G.G.[am]}$PEPTIDE1,PEPTIDE1,4:R3-13:R3$$$V2.0) | – | – | 2 µM
